Reference: patent US7632506B2, “Identification of new NY-ESO-1 epitopes recognized by CD4+ T-cells” (Ludwig Institute for Cancer Research, priority 2005, dated 2009)

Assays:
CD4+ T cells [1] = test: IFN-γ ELISPOT of CD4+ T cells presensitized with overlapping NY-ESO-1 18 mer peptides; type: cell-based, human; details: for Patient T cells 1 / Patient T cells 2 / Patient T cells 3: IFN-γ ELISPOT; for Patient T cells 1: day 12, CD4+ T cells of patient 1, autologous peptide pulsed EBV-B cells as targets; for Patient T cells 2: day 12, CD4+ T cells of patient 2, autologous peptide pulsed EBV-B cells as targets; for Patient T cells 3: day 12, CD4+ T cells of patient 3, autologous peptide pulsed EBV-B cells as targets; for patients whose CD4+ T cells recognized the peptide: three patients tested
Method: Peripheral blood mono-nuclear cells (“PBMCs”) were separated from heparinized blood via Ficoll density gradient separation, using standard, art recognized techniques. Once this was done, the CD4^+ and CD8^+ T cells were separated from each other using magnetic cell sorting techniques which are well known to the art, producing CD4^+, CD8^+, and CD4^−/CD8^− cell populations.
A series of 18 mer peptides were prepared from the amino acid sequence of NY-ESO-1 as set forth in, e.g., U.S. Pat. No. 5,804,381, incorporated by reference. The peptides were designed to cover the entire sequence of NY-ESO-1, and to provide overlap.
The peptides were then individually pulsed to antigen presenting cells (“APCs”). These were CD4^−/CD8^− PBMCs taken from the same subjects who had provided the CD4^+ and CD8^+ cells. These APCs were irradiated with 3000 rads, and then pulsed with one of the peptides, at a concentration of 10 μg/ml, for 1 hour, in serum free medium. These APCs were then washed, and added to the CD4^+ cells. In the pulsing experiments, the peptides were solubilized in DMSO (100%) and then diluted with PBS to a final concentration of 10% DMSO. The CD4^+ cells had been cultured in a medium of L-arginine (242 mg/l), L-asparagene (50 mg/l), L-glutamine (300 mg/l), penicillin (10 IU/ml), streptomycin (100 μg/ml), 1% non-essential amino acids, 10% HS, and 10 ng/ml of recombinant human IL-2.
(§1) The CD4^+ T cells were restimulated weekly with 1 μg/ml of the peptide being used. On day 12, each CD4^+ culture was assayed for NY-ESO-1 peptide recognition, using the ELISPOT assay of lager, et al., Proc. Natl. Acad. Sci. USA, 97(9):4760-4765 (2000), incorporated by reference. To elaborate on this procedure, flat-bottomed, 96-well nitrocellulose plates were coated with 5 μg/ml of anti-interferon-gamma antibody and incubated overnight at 4° C. After washing with PBS, plates were blocked with 10% human serum (HS) for 1 hour at 37° C. Depending on the effector:target ratio used, various numbers of presensitized CD4^+ T-cells were added to each well along with 5×10^4 autologous peptide pulsed EBV transfected B cells (“EBV-B cells”) serving as target cells and incubated for 16 hours at 37° C. in TCM without IL-2. Plates were then washed extensively (6 times with a solution of 0.05% Tween 20/PBS), and biotinylated anti-interferon-gamma detection antibody was added at a concentration of 0.5 μg/ml. After incubation for 2 h at 37° C., plates were washed and incubated with ABC-AP Vectastain for 1 hour. Plates were washed again and developed with substrate (BCIP/NPT) until blue spots were visible. The number of blue spots/well represented the proportion of NY-ESO-1 specific CD4^+ T-cells/well was finally counted under the microscope.
The EBV-B-cells were generated from each patients' PBMC following standard methods and maintained in RPMI 1640 medium supplemented with 10 mM Hepes buffer, L-arginine (242 mg/l), L-asparagine (50mg/l), L-glutamine (300 mg/l), penicillin (10 IU/ml), streptomycin (100 μg/ml), 1% non-essential amino acids, and 10% FCS. […] PBMC's or EBV-B-cells were molecularly typed for HLA expression using standard procedures.

[2] = test system: CD4+ T cell clones NW2337-CD4-1 and NW2337-CD4-10; test: 51Cr release assay with peptide-pulsed EBV-B target cells; type: cell-based, human; details: for recognition by clone NW2337-CD4-10: clone generated with p55-72
Method: In these experiments, exemplary clones NY-ESO-1 p49-66 specific CD4^+ T cell clone NW2337-CD4-1 and NY-ESO-1 p55-72 specific CD4^+ T cell clone NW2337-CD4-10 were characterized in ^51Chromium (^51Cr) release assays using peptides overlapping the sequence of each stimulation peptide. Standard ^51Cr release assay methods were used. Briefly, autologous EBV B cell target cells were labeled with 100 μCi Na2^51CrO4 for 2 hours, and pulsed with 18 mer or 20 mer NY-ESO-1 peptides (10 μg/ml) for 1 hour. Then, 1×10^3 target cells/well were incubated in 96 V- bottom microwell plates with effector cells at different E/T ratios for 4 h at 37° C. ^51Cr release was measured in the supernatant and the specific cytotoxicity was calculated using the standard methods. Polyclonal T-cell populations were preincubated with unlabeled K562 cells as competitors at a concentration of 40:1 in order to block non-specific effector reactions.
These experiments confirmed recognition of naturally presented NY-ESO-1 epitopes by the CD4+ T-cell clones.

[3] = test system: CD4+ T cell clones NW2337-CD4-1 and NW2337-CD4-10; test: Peptide titration ELISPOT assay with overlapping NY-ESO-1 peptides; type: cell-based, human; details: peptide 10 μM to 0.1 nM pulsed onto autologous EBV-B-cells
Method: as §1
To further identify the exact epitope required for CD4^+ T cell recognition by these two CD4^+ T cell clones, a peptide titration assay was performed using overlapping NY-ESO-1 peptides (FIG. 2) at concentrations between 10 μM and 0.1 nM, pulsed onto autologous EBV-B-cells and tested in ELISPOT assays (FIG. 3).

HLA-DQB1 03011 = biological target: T1, HLA-DQB1 03011 (Homo sapiens, UniProt P01909+P01920); test: ELISPOT with peptide pulsed allogeneic EBV-B-cells of known HLA class II type (HLA restriction); type: cell-based; details: only shared allele of the recognized peptide pulsed allogenic EBV-B cell lines
T1 construct: peptide pulsed allogeneic EBV-B-cells with known HLA class II types as stimulator cells; endogenous in cells; host or cells: allogeneic patient-derived EBV-transformed B-cell lines (NW-2078, NW-2081, NW-2395, NW-2234, NW-2337, NW-1100, MZ-1257)
T1 sequence (P01920 33-261, other chains not shown): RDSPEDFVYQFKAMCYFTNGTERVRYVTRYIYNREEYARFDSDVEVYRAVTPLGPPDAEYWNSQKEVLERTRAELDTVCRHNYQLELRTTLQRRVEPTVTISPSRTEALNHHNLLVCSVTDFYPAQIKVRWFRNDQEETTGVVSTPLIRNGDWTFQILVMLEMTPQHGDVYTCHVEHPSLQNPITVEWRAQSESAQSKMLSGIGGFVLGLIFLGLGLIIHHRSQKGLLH
Method: In order to determine the HLA molecule to which the novel NY-ESO-1 peptides described above bind, the NW2337 CD4^+ T-cell clones NW2337-CD4-1 and NW2337-CD4-10, were tested in ELISPOT assays using a range of peptide pulsed allogeneic EBV-B-cells with known HLA class II types as stimulator cells as indicated in the following Table. The EBV-B-cell lines were HLA typed using standard methods as described above.
The NW2337-CD4-1 clone recognized allogenic peptide pulsed EBV-B cells from patients NW-2078, NW-2081, NW-2395, NW-2234, NW-2337, NW-1100 and MZ-1257. The allogenic EBV-B cells were recognized by the T cells when pulsed exogenously with either the NY-ESO-1 p49-66 or p55-72 as observed with autologous EBV-B cells described above. […] None of the EBV-B-cells lines that were not recognized by the T cells expressed this MHC allele. […] Again the NY-ESO-1 positive MZ-1257 EBV-B-cell line was recognized with or without exogenous peptide.

NW2337 CD4+ T cells = test: Cytokine ELISPOT assays (IFNγ, TNFα, IL4, IL10) of NW2337 CD4+ T cells; type: cell-based, human
Description: All ELISPOT assay described, supra were designed to detect IFN-γ secretion by the T cell clones following specific antigen stimulation. To determine the phenotype of the NY-ESO-1 specific CD4^+ T cell clones from patient NW2337, additional ELISPOT assays were designed to detect additional cytokines.
The NW2337 CD4^+ T cells were stimulated with either NY-ESO-1 p49-66 and p55-72 peptides and T cells secretion of IFNγ, TNFα, IL4 and IL10measured by ELISPOT assay. […] IL4 and IL10 was not secreted by any of the NY-ESO-1 specific CD4^+ T-cell clones tested following stimulation with NY-ESO-1 p49-66 and p55-72 peptides.

CD4+ T cells [4] = test: IFN-γ ELISPOT of CD4+ T cells presensitized with overlapping NY-ESO-1 18 mer peptides; type: cell-based, human; details: patient NW2337, limiting dilution
[5] = autologous EBV B cells pulsed with peptide 10 μg/ml

In the case of “P61-78: synthetic 18 mer peptide, amino acids 61-78 of NY-ESO-1 (PRGPHGGAASGLNGCCRC; UniProt P78358 61-78, looked up, fragment) [Peptide P61-78]”, the “Patient T cells 1” value (CD4+ T cells [1]) is reported as “+ (+ indicates >50 spots (all + scores indicated were >100 spots))”, the “Patient T cells 2” value (CD4+ T cells [1]) is reported as “+ (+ indicates >50 spots (all + scores indicated were >100 spots))” and the “Patient T cells 3” value (CD4+ T cells [1]) is reported as “+ (+ indicates >50 spots (all + scores indicated were >100 spots))”. For the same substance, the “patients whose CD4+ T cells recognized the peptide” value (CD4+ T cells [1]) was “all three patients”, the “recognition by clone NW2337-CD4-10” value [2, 5] was “crossreacted” and the “recognition by clone NW2337-CD4-10” value [3] was “able to recognize”.

“P49-66: synthetic 18 mer peptide, amino acids 49-66 of NY-ESO-1 (GAARASGPGGGAPRGPHG; UniProt P78358 49-66, looked up, fragment) [Peptide P49-66]” was tested, and the “Patient T cells 1” value (CD4+ T cells [1]) was “+ (+ indicates >50 spots (all + scores indicated were >100 spots))”, the “Patient T cells 2” value (CD4+ T cells [1]) was “+ (+ indicates >50 spots (all + scores indicated were >100 spots))” and the “Patient T cells 3” value (CD4+ T cells [1]) was “+ (+ indicates >50 spots (all + scores indicated were >100 spots))”. For the same substance, the “patients whose CD4+ T cells recognized the peptide” value (CD4+ T cells [1]) was “all three patients”, the “lysis of peptide pulsed autologous NW-2337-EBV B-cell lines by clones NW-2337-CD4-1 and -4” value [2] was “efficiently lysed” and the “recognition by clone NW2337-CD4-1” value ([2]; autologous EBV B cells pulsed with peptide 10 μg/ml, clone generated with p49-66) was “recognized”. The “recognition by clone NW2337-CD4-10” value [2, 5] was “did not crossreact”, the “recognition by clone NW2337-CD4-1” value [3] was “recognized” and the “MHC class II allele presenting the peptide to NW2337-CD4-1 T cells” value (HLA-DQB1 03011) was “HLA-DQB1 03011”. For the same substance, the “IFN-γ secretion by stimulated T cell clones” value (NW2337 CD4+ T cells) was “produced”, the “IL4 secretion by stimulated T cell clones” value (NW2337 CD4+ T cells) was “not secreted” and the “IL10 secretion by stimulated T cell clones” value (NW2337 CD4+ T cells) was “not secreted”. The “TNF-α secretion by stimulated T cell clones” value (NW2337 CD4+ T cells) was “produced” and the “CD4+ T-cell clones generated by stimulation with peptide” value (CD4+ T cells [4]) was 27.
